# Key:
# [1] = target: IMP-1 (Serratia marcescens, UniProt P52699); test: biochemical; conditions: CCF2-FA fluorescence assay, 2 hours at 25° C.; read-out: IMP1 IC50
# Summary of the method: (§1)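 Each enzyme (final 1 pM NDM-1, 2 pM IMP-1, 30 pM VIM-1) was incubated with test inhibitor (20 μM to 0.00063 μM) and 1.25 μM CCF2-FA for 2 hours at 25° C in zinc-supplemented phosphate buffer, pH 7. Fluorescence at 460 nm was then read and IC50 fitted with four parameters.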
# [2] = target: VIM-1 (Pseudomonas aeruginosa (strain ATCC 15692 / DSM 22644 / CIP 104116 / JCM 14847 / LMG 12228 / 1C / PRS 101 / PAO1), UniProt A0A0F7KYQ8); test: biochemical; conditions: CCF2-FA fluorescence assay, 2 hours at 25° C.; read-out: VIM1 IC50
# Summary of the method: as §1
# [3] = target: NDM-1 (Klebsiella pneumoniae, UniProt C7C422); test: biochemical; assay type: biochemical; conditions: CCF2-FA fluorescence assay, 2 hours at 25° C.
# Summary of the method: as §1
# [4] = test system: P. aeruginosa MB9799 (efflux-, IMP-1 plasmid); assay type: cell-based, Pseudomonas aeruginosa; conditions: efflux − (MB9799) strain; imipenem at 2 μg/mL; in the presence of a class A, C, D serine β-lactamase inhibitor closely related to relebactam
# Summary of the method: (§2)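 Isogenic P. aeruginosa PAO1 strains (efflux+ and multiple-efflux-pump-disrupted) carrying plasmid IMP-1, with inducible AmpC, tested by broth microdilution. Imipenem and/or ceftazidime fixed, usually at CLSI breakpoint, plus fixed class A/C β-lactamase inhibitor; titrated MBL inhibitor concentration restoring susceptibility recorded and compared between strains as efflux fold difference.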
# [5] = target: VIM-2 (Escherichia coli, UniProt Q5U7L7); test: biochemical; conditions: CCF2-FA fluorescence assay; read-out: VIM2 IC50
# [6] = test system: P. aeruginosa MB9798 (efflux+, IMP-1 plasmid); conditions: for MB9798 MITC95 P. aeruginosa uM Efflux WT: efflux + (MB9798) strain, imipenem at 2 μg/mL, in the presence of a class A, C, D serine β-lactamase inhibitor closely related to relebactam; for Efflux ratio: fold difference between efflux+ (MB9798) and efflux− (MB9799) strains
# Summary of the method: as §2
# [7] = test system: Klebsiella pneumoniae expressing VIM-1 (IHMA599644); assay type: cell-based; conditions: with imipenem 1 μg/ml; 95% inhibition of bacterial growth
# Summary of the method: (§3)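 Read-out is absorbance after 22–24 h at 35 °C, with MITC95 taken as the lowest inhibitor concentration that, alongside imipenem at 1 μg/ml, suppresses 95% of bacterial growth. Inocula came from saline-suspended colonies diluted 1:100 into 1.1× CAMHB.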
# [8] = test system: Serratia marcescens expressing IMP-1 (CL5741); assay type: cell-based; conditions: with imipenem 1 μg/ml; 95% inhibition of bacterial growth
# Summary of the method: as §3
# [9] = test system: Escherichia coli expressing NDM-1 (CLB30016); assay type: cell-based; conditions: with imipenem 1 μg/ml; 95% inhibition of bacterial growth
# Summary of the method: as §3
# Sequence of IMP-1 (P52699 whole entry, looked up, species assumed): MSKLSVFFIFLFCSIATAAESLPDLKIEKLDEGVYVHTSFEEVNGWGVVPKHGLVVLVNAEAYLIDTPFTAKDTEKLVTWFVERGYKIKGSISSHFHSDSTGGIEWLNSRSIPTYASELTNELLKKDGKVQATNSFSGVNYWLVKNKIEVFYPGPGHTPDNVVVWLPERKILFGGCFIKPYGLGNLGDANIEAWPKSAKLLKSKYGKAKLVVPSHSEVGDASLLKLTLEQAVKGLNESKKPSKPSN
# Sequence of NDM-1 (C7C422 whole entry, looked up, species assumed): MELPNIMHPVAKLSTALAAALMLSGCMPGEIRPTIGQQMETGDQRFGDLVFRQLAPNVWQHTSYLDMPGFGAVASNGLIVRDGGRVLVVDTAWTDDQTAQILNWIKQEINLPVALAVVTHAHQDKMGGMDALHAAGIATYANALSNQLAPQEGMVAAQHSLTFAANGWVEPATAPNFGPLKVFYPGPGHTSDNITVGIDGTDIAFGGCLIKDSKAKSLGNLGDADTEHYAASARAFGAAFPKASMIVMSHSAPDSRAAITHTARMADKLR
SMILES,IC50 [1],IC50 [2],IC50 [3],MB9799 MITC95 P. aeruginosa uM Efflux Mutant [4],IC50 [5],MB9798 MITC95 P. aeruginosa uM Efflux WT [6],Efflux ratio [6],IHMA599644 K. pneumoniae MITC95 VIM [7],CL5741 S. marcescens MITC95 IMP [8],CLB30016 E. coli MITC95 NDM [9]
"NS(=O)(=O)c1c(S(=O)(=O)N[C@@H]2CCNC2)ccc(N2CCC(CO)CC2=O)c1-c1nn[nH]n1 (stereo partly drawn) [Example 157, 4-(4-(hydroxymethyl)-2-oxopiperidin-1-yl)-N1-((R)-pyrrolidin-3-yl)-3-(2H-tetrazol-5-yl)benzene-1,2-disulfonamide]",6.9 nM,0.25 nM,0.24 nM,3.13 µM,1.85 nM,3.13 µM,1.00,6.25 µM,3.13 µM,1.56 µM
"NC[C@@H](O)CNS(=O)(=O)c1ccc(N2C[C@H]3CNC[C@H]3C2)c(-c2nn[nH]n2)c1S(N)(=O)=O [Example 161, N1-((R)-3-amino-2-hydroxypropyl)-4-((3aR,6aS)-hexahydropyrrolo[3,4-c]pyrrol-2(1H)-yl)-3-(2H-tetrazol-5-yl)benzene-1,2-disulfonamide]",45.4 nM,0.89 nM,12.2 nM,6.25 µM,14.9 nM,12.50 µM,2.00,1.56 µM,3.13 µM,1.56 µM
"C[C@H](CN)NS(=O)(=O)c1ccc(N2CCC(CO)CC2)c(-c2nnn[nH]2)c1S(N)(=O)=O [Example 46, (R)-N1-(1-aminopropan-2-yl)-4-(4-(hydroxymethyl)piperidin-1-yl)-3-(1H-tetrazol-5-yl)benzene-1,2-disulfonamide]",0.12 nM,0.08 nM,0.06 nM,1.56 µM,0.32 nM,1.56 µM,1.00,6.25 µM,1.56 µM,3.13 µM
"NS(=O)(=O)c1c(S(=O)(=O)N[C@@H]2CCNC2)ccc(N2CCC(CCF)CC2)c1-c1nnn[nH]1 [Example 87, 4-[4-(2-fluoroethyl)piperidin-1-yl]-N1-[(3R)-pyrrolidin-3-yl]-3-(1H-tetrazol-5-yl)benzene-1,2-disulfonamide]",0.24 nM,0.12 nM,0.16 nM,1.56 µM,0.49 nM,12.50 µM,8.00,3.13 µM,3.13 µM,1.56 µM
"NC[C@@H](O)CNS(=O)(=O)c1ccc(N2CCC(O)CC2)c(-c2nn[nH]n2)c1S(N)(=O)=O [Example 120, (R)-N1-(3-amino-2-hydroxypropyl)-4-(4-hydroxypiperidin-1-yl)-3-(2H-tetrazol-5-yl)benzene-1,2-disulfonamide]",0.76 nM,0.26 nM,0.56 nM,1.56 µM,0.79 nM,1.56 µM,1.00,3.13 µM,1.56 µM,1.56 µM
"NC[C@@H](O)CNS(=O)(=O)c1ccc(N2CCC(c3c[nH]cn3)CC2)c(-c2nnn[nH]2)c1S(N)(=O)=O [Example 169, (R)-4-(4-(1H-imidazol-4-yl)piperidin-1-yl)-N1-(3-amino-2-hydroxypropyl)-3-(1H-tetrazol-5-yl)benzene-1,2-disulfonamide]",0.26 nM,0.1 nM,0.23 nM,0.78 µM,0.4 nM,0.78 µM,1.00,2.34 µM,1.17 µM,0.39 µM
"NS(=O)(=O)c1c(S(=O)(=O)N[C@@H]2CCNC2)ccc(N2CCC(S(N)(=O)=O)CC2)c1-c1nnn[nH]1 [Example 80, N1-[(3R)-pyrrolidin-3-yl]-4-(4-sulfamoylpiperidin-1-yl)-3-(1H-tetrazol-5-yl)benzene-1,2-disulfonamide]",0.43 nM,0.13 nM,0.3 nM,1.56 µM,0.66 nM,1.56 µM,1.00,3.13 µM,0.78 µM,1.56 µM
"N[C@H]1CCCN(c2ccc(S(=O)(=O)N[C@@H]3CCNC3)c(S(N)(=O)=O)c2-c2nn[nH]n2)C1=O [Example 156, 4-((S)-3-amino-2-oxopiperidin-1-yl)-N1-((R)-pyrrolidin-3-yl)-3-(2H-tetrazol-5-yl)benzene-1,2-disulfonamide]",67.7 nM,2.14 nM,4.64 nM,1.56 µM,7.16 nM,12.50 µM,8.00,1.56 µM,1.56 µM,0.39 µM
"NS(=O)(=O)c1c(S(=O)(=O)N[C@@H]2CCNC2)ccc(N2CCCC(CO)C2)c1-c1nnn[nH]1 (stereo partly drawn) [Example 107, 4-[3-(hydroxymethyl)piperidin-1-yl]-N1-[(3R)-pyrrolidin-3-yl]-3-(1H-tetrazol-5-yl)benzene-1,2-disulfonamide]",1.1 nM,0.19 nM,0.25 nM,1.56 µM,0.42 nM,3.13 µM,2.00,6.25 µM,3.13 µM,3.13 µM
"NC[C@@H](O)CNS(=O)(=O)c1ccc(N2CC[C@H](N)[C@H](F)C2)c(-c2nn[nH]n2)c1S(N)(=O)=O [Example 195, N1-((R)-3-amino-2-hydroxypropyl)-4-((3R,4S)-4-amino-3-fluoropiperidin-1-yl)-3-(2H-tetrazol-5-yl)benzene-1,2-disulfonamide]",4.27 nM,0.14 nM,1.51 nM,0.78 µM,2.86 nM,0.78 µM,1.00,0.39 µM,0.20 µM,0.20 µM
"NS(=O)(=O)c1c(S(=O)(=O)N[C@@H]2CCNC2)ccc(N2CCC(F)(CO)CC2)c1-c1nnn[nH]1 [Example 91, 4-[4-fluoro-4-(hydroxymethyl)piperidin-1-yl]-N1-[(3R)-pyrrolidin-3-yl]-3-(1H-tetrazol-5-yl)benzene-1,2-disulfonamide]",1.26 nM,0.47 nM,0.42 nM,1.56 µM,1.65 nM,3.13 µM,2.00,6.25 µM,3.13 µM,3.13 µM
"CN1CCN(c2ccc(S(=O)(=O)N[C@@H]3CCNC3)c(S(N)(=O)=O)c2-c2nnn[nH]2)CC1=O [Example 65, 4-(4-methyl-3-oxopiperazin-1-yl)-N1-[(3R)-pyrrolidin-3-yl]-3-(1H-tetrazol-5-yl)benzene-1,2-disulfonamide]",2.26 nM,0.22 nM,1.28 nM,1.56 µM,1 nM,3.13 µM,2.00,6.25 µM,3.13 µM,3.13 µM

# From patent US11207312B2, “Metallo-beta-lactamase inhibitors and methods of use thereof” (priority 2017, dated 2021)
